Structures can show the parent of a compound that is named as a salt. Where two headings read alike, the source gives them in different places.
Key:
ddY female mouse = experiment: Effect of test compound on hypoxia (antihypoxic activity); assay type: in vivo; conditions: po, read-out: Antihypoxic activity (%)
Experimental: A test compound dissolved in physiological saline (100 mg/kg) was orally administered to a ddY female mouse (5-6 weeks old, each group consisting of 10 mice). After 1 (or 30 minutes*) hour from the administration, each mouse was placed in a 300-ml glass chamber, and a gas mixture consisting of 4% of oxygen and 96% of nitrogen was passed through the chamber at a rate of 5 liters/min. A time from the start of gas passing to the death of each mouse was measured.
To a control mice group was orally administered only physiological saline.
The antihypoxic activity of the test compound was calculated from the following formula: [formula]

acetylcholinesterase = biological target: T1, acetylcholinesterase (Mus musculus, UniProt P21836); experiment: Inhibitory activity for acetylcholinesterase (method of Ellman et al.); assay type: biochemical; conditions: final concentration of the test compound 10 µg/ml; mouse cerebral homogenate; read-out: Inhibition (%)
T1 construct: a mouse cerebral homogenate (as an acetylcholinesterase source); from tissue; host or cells: mouse cerebrum (homogenate)
Experimental: A test was conducted in accordance with the method of Ellman et al. [Biochem. Pharmacol., vol. 7, pp. 88-95, 1961].
That is, acetylthiocholine (as a substrate) was added to a phosphate buffer solution containing 5,5'-dithiobis-(2-nitrobenzoic acid) (DTNB), a test compound and a mouse cerebral homogenate (as an acetylcholinesterase source). The resulting mixture was incubated, and the amount of the resulting 5-thio-2-nitrobenzoic acid was photometrically measured at 412 nm.
The inhibitory activity for acetylcholinesterase of the test compound was expressed by the inhibition (%) when the final concentration of the test compound was 10 µg/ml.

ddY male mice = experiment: Acute toxicity; assay type: in vivo, mouse; conditions: 50 mg/kg intravenously, group of 3 ddY male mice
Description: A test compound dissolved in physiological saline was intravenously administered to a group of 3 ddY male mice (5-6 weeks old) to examine the acute toxicity of the test compound.

[1] = 100 mg/kg orally, placed in chamber (4% oxygen, 96% nitrogen) after 1 hour from the administration, survival time relative to control
[2] = 0.5 h, 100 mg/kg orally, placed in chamber (4% oxygen, 96% nitrogen) after 30 minutes from the administration (values marked *), survival time relative to control

T1 sequence (P21836 32-614): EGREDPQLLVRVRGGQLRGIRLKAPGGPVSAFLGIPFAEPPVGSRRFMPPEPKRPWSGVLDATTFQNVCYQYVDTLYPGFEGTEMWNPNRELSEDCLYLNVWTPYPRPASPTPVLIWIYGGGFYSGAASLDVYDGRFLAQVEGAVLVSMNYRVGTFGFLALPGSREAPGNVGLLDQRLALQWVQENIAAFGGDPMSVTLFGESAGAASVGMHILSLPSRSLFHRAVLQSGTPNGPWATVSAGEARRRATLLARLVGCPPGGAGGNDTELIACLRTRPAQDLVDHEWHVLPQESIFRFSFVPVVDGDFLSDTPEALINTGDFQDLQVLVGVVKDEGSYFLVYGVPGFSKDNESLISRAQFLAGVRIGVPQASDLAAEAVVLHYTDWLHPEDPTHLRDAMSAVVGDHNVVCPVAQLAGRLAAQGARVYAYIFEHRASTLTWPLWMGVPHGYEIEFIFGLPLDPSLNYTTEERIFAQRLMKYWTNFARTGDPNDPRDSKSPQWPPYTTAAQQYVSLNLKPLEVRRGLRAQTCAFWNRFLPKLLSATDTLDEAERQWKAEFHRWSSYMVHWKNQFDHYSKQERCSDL

SMILES | inhibition at 10 µg/mL (acetylcholinesterase) [%] | response vs control in vivo at 100 mg/kg (ddY female mouse; [2]) [%] | also measured
CN(C)CCOCC(O)c1ccc(OCc2ccccc2)cc1 (stereo not drawn) [Compound No. 48, 1-(4-benzyloxyphenyl)-2-[2-(N,N-dimethylamino)ethoxy]ethanol hydrochloride] | 51 |  | response vs control in vivo at 100 mg/kg (ddY female mouse; 1 h): 160%
OC(COCCN1CCCCC1)c1ccc(Cl)c(Cl)c1 (stereo not drawn) [compound 37] | 45 |  | response vs control in vivo at 100 mg/kg (ddY female mouse; [1]): 148%
CN(C)CCOCC(O)c1cccc(OCc2ccccc2)c1 (stereo not drawn) [compound 47] | 38 | 165 | 
COc1ccc(-c2ccc(C(O)COCCN(C)C)cc2)cc1 (stereo not drawn) [compound 55] | 22 |  | response vs control in vivo at 100 mg/kg (ddY female mouse; [1]): 207%
CN(C)CCOCC(O)c1cccc(Cc2ccccc2)c1 (stereo not drawn) [compound 58] | 45 |  | response vs control in vivo at 100 mg/kg (ddY female mouse; [1]): 133%
OC(COCCC1CCN(Cc2ccccc2)CC1)c1ccccc1 (stereo not drawn) [compound 60] | 71 |  | 
Cc1cccc(C(O)COCCC2CCN(Cc3ccccc3)CC2)c1 (stereo not drawn) [compound 61] | 89 | 184 | 
OC(COCCC1CCN(Cc2ccccc2)CC1)c1ccc(F)cc1 (stereo not drawn) [compound 62] | 78 |  | response vs control in vivo at 100 mg/kg (ddY female mouse; [1]): 127%
Cc1cc(C)cc(Oc2ccc(C(O)COCCN(C)C)cc2)c1 (stereo not drawn) [compound 72] | 92 |  | 
CN(C)CCOCC(O)c1ccc(Oc2ccccc2)c(F)c1 (stereo not drawn) [compound 73] | 89 |  | 
OC(COCCC1CCN(Cc2ccccc2)CC1)c1ccc(Oc2ccccc2)cc1 (stereo not drawn) [compound 78] | 90 |  | 
Cc1ccc(Oc2ccc(C(O)COCCN(C)C)cc2)cc1 (stereo not drawn) [compound 83] | 93 | 177 | 
CN(C)CCOCC(O)c1ccc(OCc2ccncc2)cc1 (stereo not drawn) [compound 86] | 50 | 130 | 
CN(C)CCOCC(O)c1ccc(CCc2ccccc2)cc1 (stereo not drawn) [compound 89] | 44 | 156 | 
CCN(CC)CCOCC(O)c1cccc(C)c1 (stereo not drawn) [compound 90] | 52 |  | 
CN(C)CCOCC(O)c1ccc(OCc2cccc(Cl)c2)cc1 (stereo not drawn) [compound 97] | 38 | 138 | 
CN(C)CCOC[C@H](O)c1ccc(OCc2ccccc2)cc1 [compound 103] | 36 |  | 
OC(COC1CCN(Cc2ccccc2)CC1)c1ccccc1 (stereo not drawn) [compound 113, 2-(1-benzylpiperidin-4-yloxy)-1-phenylethanol hydrochloride] | 45 |  | 
OC(COCCN1CCc2ccccc2C1)c1ccccc1 (stereo not drawn) [compound 165] | 24 |  | 
CN(C)CCOCC(O)c1ccc(SCc2ccccc2)cc1 (stereo not drawn) [compound 222, 1-(4-benzylthiophenyl)-2-[2-(N,N-dimethylamino)ethoxy]ethanol hydrochloride] | 83 |  | response vs control in vivo at 100 mg/kg (ddY female mouse; 0.5 h): 152%
CN(C)CCOCC(O)c1ccc(S(=O)(=O)Cc2ccccc2)cc1 (stereo not drawn) [compound 223] | 74 | 149 | 
CN(C)CCOCC(O)c1ccc(-c2cccs2)cc1 (stereo not drawn) [compound 224] | 36 |  | response vs control in vivo at 100 mg/kg (ddY female mouse; [1]): 155%
CN(C)CCOCC(O)c1cccc2ccccc12 (stereo not drawn) [compound 228, 2-[2-(N,N-dimethylamino)ethoxy]-1-(1-naphthyl)ethanol hydrochloride] | 30 |  | response vs control in vivo at 100 mg/kg (ddY female mouse; 1 h): 144%
CN(C)CCOCC(O)c1ccc(Cl)c2ccccc12 (stereo not drawn) [compound 230] | 25 |  | response vs control in vivo at 100 mg/kg (ddY female mouse; [1]): 177%
CN(C)CCCOCC(O)c1cccc2ccccc12 (stereo not drawn) [compound 233] | 59 |  | 
OC(COCCN1CCCCC1)c1cccc2ccccc12 (stereo not drawn) [compound 237] | 44 |  | response vs control in vivo at 100 mg/kg (ddY female mouse; [1]): 149%

SMILES | inhibition at 10 µg/mL (acetylcholinesterase) [%] | response vs control in vivo at 100 mg/kg (ddY female mouse; [2]) [%] | also measured
COc1ccc(C(O)COCCN(C)C)c2ccccc12 (stereo not drawn) [compound 239] | 22 |  | response vs control in vivo at 100 mg/kg (ddY female mouse; [1]): 150%
CN(CCOCC(O)c1cccc2ccccc12)Cc1ccccc1 (stereo not drawn) [compound 241] | 31 |  | 
CN(C)CCOCC(O)c1cccc2ccc(Cl)cc12 (stereo not drawn) [compound 246] | 30 |  | response vs control in vivo at 100 mg/kg (ddY female mouse; [1]): 128%
CN(C)CCOCC(O)c1cccc2cccc(Cl)c12 (stereo not drawn) [compound 247] | 26 |  | response vs control in vivo at 100 mg/kg (ddY female mouse; [1]): 124%
O=C(c1ccc(F)cc1)C1CCN(CCOCC(O)c2cccc3ccccc23)CC1 (stereo not drawn) [compound 260, 2-{2-[4-(p-fluorobenzoyl)piperidin-1-yl]ethoxy}-1-(1-naphthyl)ethanol hydrochloride] | 43 |  | response vs control in vivo at 100 mg/kg (ddY female mouse; 1 h): 124%
OC(COCCN1CCN(Cc2ccccc2)CC1)c1cccc2ccccc12 (stereo not drawn) [compound 302] | 38 | 182 | 
CN(C)CCOCC(O)c1ccc2sccc2c1.Cl (stereo not drawn) [compound 312, 1-(benzo[b]thiophen-5-yl)-2-[2-(N,N-dimethylamino)ethoxy]ethanol hydrochloride] |  |  | response vs control in vivo at 100 mg/kg (ddY female mouse; 0.5 h): 221%; Acute toxicity (ddY male mice): no death case
CN(C)CCOCC(O)c1cccs1 (stereo not drawn) [compound 313] |  | 154 | Acute toxicity (ddY male mice): no death case
CN(C)CCOCC(O)c1ccc2c(c1)CC(=O)N2 (stereo not drawn) [compound 322] | 20 |  | 
CN(C)CCOCC(O)c1ccc2occc2c1 (stereo not drawn) [compound 325] |  | 217 | Acute toxicity (ddY male mice): no death case
OC(COCCN1CCOCC1)c1ccc2sccc2c1 (stereo not drawn) [compound 327] |  | 160 | Acute toxicity (ddY male mice): no death case
CN(C)CCOCC(O)c1ccc2c(c1)CCN2 (stereo not drawn) [compound 329] | 45 |  | 
CN(C)CCCOCC(O)c1ccc2sccc2c1 (stereo not drawn) [compound 336] | 21 | 224 | 
CN(C)CCCCOCC(O)c1ccc2sccc2c1 (stereo not drawn) [compound 337] |  | 309 | Acute toxicity (ddY male mice): no death case
O=C1CCc2cc(C(O)COCc3cccnc3)ccc2N1 (stereo not drawn) [compound 341] | 61 |  | 
OC(COCCC1CCN(Cc2ccccc2)CC1)c1ccc2sccc2c1 (stereo not drawn) [compound 342] | 67 | 157 | 
O=C(c1ccc(F)cc1)C1CCN(CCOCC(O)c2ccc3sccc3c2)CC1 (stereo not drawn) [compound 350] | 42 | 147 | 
OC(COCCN1CCN(c2ncccn2)CC1)c1ccc2sccc2c1 (stereo not drawn) [compound 352] | 26 |  | 
CN(C)CCOCC(O)c1ccc(Cl)s1 (stereo not drawn) [compound 368] |  | 135 | Acute toxicity (ddY male mice): no death case
NCCOCC(O)c1ccc2occc2c1 (stereo not drawn) [compound 369] |  | 143 | Acute toxicity (ddY male mice): no death case
CN(C)CCOCC(O)c1nccn1Cc1ccccc1 (stereo not drawn) [compound 372] | 30 |  | 
CNCCOCC(O)c1cc2ccccc2s1 (stereo not drawn) [compound 375] |  | 156 | Acute toxicity (ddY male mice): no death case
Cc1ccc2sc(C(O)COCCN(C)C)cc2c1 (stereo not drawn) [compound 385] |  | 161 | Acute toxicity (ddY male mice): no death case
CN(C)CCCOCC(O)c1ccc2occc2c1 (stereo not drawn) [compound 390] |  | 248 | Acute toxicity (ddY male mice): no death case
CN(C)CCOCC(O)c1ccc([N+](=O)[O-])s1 (stereo not drawn) [compound 405, 1-(5-nitro-2-thienyl)-2-[2-(N,N-dimethylamino)ethoxy]ethanol] | 59 | 137 | 

Source: patent EP0589484A1, “1,2-Ethanediol derivative and salt thereof, process for producing the same, and cerebral function-improving agent comprising the same” (TOYAMA CHEMICAL CO., LTD., priority 1989, dated 1990)
